Assay [1] has as its target T1, Epidermal growth factor receptor (Homo sapiens, UniProt P00533). The experiment in a line: Inhibition of wild type EGFR (unknown origin) using FAM-labelled peptide as substrate at 1 uM incubated for 10 mins in presence of ATP measured by mobility shift assay.
For assay [2], the species on record is Homo sapiens. The experiment in a line: Inhibition of EGFR T790M/L858R double mutant (unknown origin) using FAM-labelled peptide as substrate at 1 uM incubated for 10 mins in presence of ATP measured by mobility shift assay.
For assay [3], the species on record is Homo sapiens. The experiment in a line: Inhibition of EGFR T790M mutant (unknown origin) using FAM-labelled peptide as substrate at 1 uM incubated for 10 mins in presence of ATP measured by mobility shift assay.
Assay [4] addresses Vascular endothelial growth factor receptor 2 (Homo sapiens) (UniProt P35968). The experiment in a line: Inhibition of KDR (unknown origin) using FAM-labelled peptide as substrate at 1 uM incubated for 10 mins in presence of ATP measured by mobility shift assay.
The target in assay [5] is Hepatocyte growth factor receptor (Homo sapiens) (UniProt P08581). The experiment in a line: Inhibition of c-MET (unknown origin) using FAM-labelled peptide as substrate at 1 uM incubated for 10 mins in presence of ATP measured by mobility shift assay.
In the next assay the test system is MCF7. The experiment in a line: Antiproliferative activity against human MCF7 cells assessed as inhibition of cell proliferation measured after 72 hrs by MTT assay. Type of assay: functional, cell-based. The following applies: MCF7, 72 h.
The subject of another assay is HeLa. The experiment in a line: Antiproliferative activity against human HeLa cells assessed as inhibition of cell proliferation measured after 72 hrs by MTT assay. The class given is functional, cell-based.
Assay [6] deals with A-431. The experiment in a line: Antiproliferative activity against human A-431 cells assessed as inhibition of cell proliferation measured after 72 hrs by MTT assay. The class given is functional, cell-based. The following applies: A-431, 72 h. (Tetrazolium dyes change colour on reduction, which living cells bring about.)
A further assay relates to A549. The experiment in a line: Antiproliferative activity against human A549 cells assessed as inhibition of cell proliferation measured after 72 hrs by MTT assay. Type of assay: functional, cell-based. The following applies: A549, 72 h.
Assay [7] has as its target Serine/threonine-protein kinase mTOR (Homo sapiens) (UniProt P42345). The experiment in a line: Inhibition of mTOR (unknown origin) using FAM-labelled peptide as substrate at 1 uM incubated for 10 mins in presence of ATP measured by mobility shift assay.
The species entered for assay [8] is Homo sapiens. The experiment in a line: Inhibition of PI3K (unknown origin) using FAM-labelled peptide as substrate at 1 uM incubated for 10 mins in presence of ATP measured by mobility shift assay.
The next assay concerns L02. The experiment in a line: Cytotoxicity against human L02 cells assessed as inhibition of cell proliferation measured after 72 hrs by MTT assay. Type of assay: cell-based. Conditions: L02, 72 h.
Assay [9] has as its system NCI-H1975. The experiment in a line: Antiproliferative activity against human NCI-H1975 cells harboring EGFR T790M/L858R double mutant assessed as inhibition of cell viability at 10 uM measured after 72 hrs by MTT assay. The class given is functional.
Assay [10] deals with NCI-H1975. The experiment in a line: Antiproliferative activity against human NCI-H1975 cells harboring EGFR T790M/L858R double mutant assessed as inhibition of cell viability at 1 uM measured after 72 hrs by MTT assay. The class given is functional.
In assay [11] the test system is NCI-H1975. The experiment in a line: Antiproliferative activity against human NCI-H1975 cells harboring EGFR T790M/L858R double mutant assessed as inhibition of cell viability measured after 72 hrs by MTT assay. The class given is functional, cell-based. The following applies: NCI-H1975, 72 h.
Assay [12] in a line: Inhibition of EGFR T790M mutant (unknown origin) using FAM-labelled peptide as substrate incubated for 10 mins in presence of ATP measured by mobility shift assay. More on the design: species or system Homo sapiens.
Assay [13] in a line: Inhibition of EGFR T790M/L858R double mutant (unknown origin) using FAM-labelled peptide as substrate incubated for 10 mins in presence of ATP measured by mobility shift assay. Also on record: species or system Homo sapiens.
Assay [14] has as its target T1, Epidermal growth factor receptor. The experiment in a line: Inhibition of wild type EGFR (unknown origin) using FAM-labelled peptide as substrate incubated for 10 mins in presence of ATP measured by mobility shift assay.
Assay [15] is filed under the species Homo sapiens. The experiment in a line: Selectivity ratio of IC50 for wild type EGFR (unknown origin) to IC50 for EGFR T790M mutant (unknown origin) measured by mobility shift assay.
For assay [16], the species on record is Homo sapiens. The experiment in a line: Selectivity ratio of IC50 for wild type EGFR (unknown origin) to IC50 for EGFR T790M/L858R double mutant (unknown origin) measured by mobility shift assay.
Assay [17] relates to A-431. The experiment in a line: Antiproliferative activity against human A-431 cells assessed as inhibition of cell proliferation at 0.33 uM measured after 6 hrs by Acridine orange staining based fluorescence microscopy. Type of assay: functional.
The subject of assay [18] is A-431. The experiment in a line: Induction of apoptosis in human A-431 cells assessed as viable cells at 0.2 uM measured after 48 hrs by Annexin V-FITC staining based flow cytometry (reference value: 95.67%). The class given is functional. Conditions: read-out: Activity. (In general: In flow cytometry, cells or beads pass a laser one at a time.)
Assay [19] relates to A-431. The experiment in a line: Induction of apoptosis in human A-431 cells assessed as early apoptotic cells at 0.2 uM measured after 48 hrs by Annexin V-FITC staining based flow cytometry (reference value: 2.1%). The class given is functional.
Assay [20] has as its system A-431. The experiment in a line: Induction of apoptosis in human A-431 cells assessed as late apoptotic cells at 0.2 uM measured after 48 hrs by Annexin V-FITC staining based flow cytometry (reference value: 2.02%). The class given is functional.
In assay [21] the test system is A-431. The experiment in a line: Induction of apoptosis in human A-431 cells assessed as necrotic cells at 0.2 uM measured after 48 hrs by Annexin V-FITC staining based flow cytometry (reference value: 0.21%). The class given is functional.
In assay [22] the test system is A-431. The experiment in a line: Induction of apoptosis in human A-431 cells assessed as viable cells at 4 uM measured after 48 hrs by Annexin V-FITC staining based flow cytometry (reference value: 95.67%). Type of assay: functional. The following applies: read-out: Activity.
Assay [23] has as its system A-431. The experiment in a line: Induction of apoptosis in human A-431 cells assessed as early apoptotic cells at 4 uM measured after 48 hrs by Annexin V-FITC staining based flow cytometry (reference value: 2.1%). The class given is functional.
Assay [24] has as its system A-431. The experiment in a line: Induction of apoptosis in human A-431 cells assessed as late apoptotic cells at 4 uM measured after 48 hrs by Annexin V-FITC staining based flow cytometry (reference value: 2.02%). Type of assay: functional.
Assay [25] concerns A-431. The experiment in a line: Induction of apoptosis in human A-431 cells assessed as necrotic cells at 4 uM measured after 48 hrs by Annexin V-FITC staining based flow cytometry (reference value: 0.21%). The class given is functional.
Assay [26] has as its system A-431. The experiment in a line: Induction of apoptosis in human A-431 cells assessed as viable cells at 8 uM measured after 48 hrs by Annexin V-FITC staining based flow cytometry (reference value: 95.67%). Type of assay: functional. Conditions: read-out: Activity.
The subject of assay [27] is A-431. The experiment in a line: Induction of apoptosis in human A-431 cells assessed as early apoptotic cells at 8 uM measured after 48 hrs by Annexin V-FITC staining based flow cytometry (reference value: 2.1%). Type of assay: functional.
Assay [28] deals with A-431. The experiment in a line: Induction of apoptosis in human A-431 cells assessed as late apoptotic cells at 8 uM measured after 48 hrs by Annexin V-FITC staining based flow cytometry (reference value: 2.02%). Type of assay: functional.
Assay [29] relates to A-431. The experiment in a line: Induction of apoptosis in human A-431 cells assessed as necrotic cells at 8 uM measured after 48 hrs by Annexin V-FITC staining based flow cytometry (reference value: 0.21%). The class given is functional.
The subject of assay [30] is A-431. The experiment in a line: Induction of cell morphological changes in human A-431 cells assessed as chromatin contraction with sharp cell edge at 0.33 uM measured after 6 hrs by Acridine orange staining based fluorescence microscopy. Type of assay: functional.
The test system of assay [31] is A-431. The experiment in a line: Induction of apoptosis in human A-431 cells assessed as viable cells at 5 uM measured after 48 hrs by Annexin V-FITC staining based flow cytometry (reference value: 95.67%). Type of assay: functional. The following applies: read-out: Activity.
Assay [32] deals with A-431. The experiment in a line: Induction of apoptosis in human A-431 cells assessed as early apoptotic cells at 5 uM measured after 48 hrs by Annexin V-FITC staining based flow cytometry (reference value: 2.1%). Type of assay: functional.
For assay [33], the system named is A-431. The experiment in a line: Induction of apoptosis in human A-431 cells assessed as late apoptotic cells at 5 uM measured after 48 hrs by Annexin V-FITC staining based flow cytometry (reference value: 2.02%). Type of assay: functional.
For assay [34], the system named is A-431. The experiment in a line: Induction of apoptosis in human A-431 cells assessed as necrotic cells at 5 uM measured after 48 hrs by Annexin V-FITC staining based flow cytometry (reference value: 0.21%). The class given is functional.

pIC50: −log10 of the molar value. Activity calls are given as the source filed them. The rule behind the calls is not given here.

The inhibition is the relative decrease from the control value, in per cent. For orientation: pIC50 means the IC50 on a negative log10 scale, so that one unit is a factor of ten.

T1 sequence (P00533 whole entry): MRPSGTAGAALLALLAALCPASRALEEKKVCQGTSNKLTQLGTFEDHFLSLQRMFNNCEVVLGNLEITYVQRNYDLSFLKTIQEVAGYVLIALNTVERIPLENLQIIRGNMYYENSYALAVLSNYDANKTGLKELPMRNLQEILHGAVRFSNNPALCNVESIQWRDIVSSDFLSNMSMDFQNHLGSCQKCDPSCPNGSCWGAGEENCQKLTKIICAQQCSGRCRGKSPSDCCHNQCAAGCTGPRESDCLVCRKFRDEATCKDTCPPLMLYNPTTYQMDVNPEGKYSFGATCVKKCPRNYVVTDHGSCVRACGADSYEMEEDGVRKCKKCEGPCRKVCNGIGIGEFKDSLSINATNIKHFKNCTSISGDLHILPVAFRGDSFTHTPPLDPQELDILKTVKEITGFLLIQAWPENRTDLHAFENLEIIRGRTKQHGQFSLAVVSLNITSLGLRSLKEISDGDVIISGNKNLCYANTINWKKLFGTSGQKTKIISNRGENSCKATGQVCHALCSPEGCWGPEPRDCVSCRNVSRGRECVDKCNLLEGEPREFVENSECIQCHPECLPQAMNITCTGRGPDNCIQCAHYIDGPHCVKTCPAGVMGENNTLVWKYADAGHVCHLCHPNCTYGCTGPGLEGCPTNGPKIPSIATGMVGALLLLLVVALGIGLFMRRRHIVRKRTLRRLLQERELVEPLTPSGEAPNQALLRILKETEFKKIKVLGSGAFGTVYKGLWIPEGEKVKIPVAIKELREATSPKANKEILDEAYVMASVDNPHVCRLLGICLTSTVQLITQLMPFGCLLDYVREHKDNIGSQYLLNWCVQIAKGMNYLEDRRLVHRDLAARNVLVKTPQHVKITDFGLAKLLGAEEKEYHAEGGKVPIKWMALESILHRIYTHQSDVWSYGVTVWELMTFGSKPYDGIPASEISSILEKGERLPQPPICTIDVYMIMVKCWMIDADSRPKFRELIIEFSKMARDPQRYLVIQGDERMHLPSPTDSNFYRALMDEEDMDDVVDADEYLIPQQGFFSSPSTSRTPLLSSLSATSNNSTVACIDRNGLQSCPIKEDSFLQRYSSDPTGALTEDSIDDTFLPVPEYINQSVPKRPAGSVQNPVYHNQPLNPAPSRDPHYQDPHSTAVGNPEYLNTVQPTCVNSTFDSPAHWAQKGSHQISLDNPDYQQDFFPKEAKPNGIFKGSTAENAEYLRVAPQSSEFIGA
Sequence of Vascular endothelial growth factor receptor 2 (Homo sapiens) (P35968 whole entry): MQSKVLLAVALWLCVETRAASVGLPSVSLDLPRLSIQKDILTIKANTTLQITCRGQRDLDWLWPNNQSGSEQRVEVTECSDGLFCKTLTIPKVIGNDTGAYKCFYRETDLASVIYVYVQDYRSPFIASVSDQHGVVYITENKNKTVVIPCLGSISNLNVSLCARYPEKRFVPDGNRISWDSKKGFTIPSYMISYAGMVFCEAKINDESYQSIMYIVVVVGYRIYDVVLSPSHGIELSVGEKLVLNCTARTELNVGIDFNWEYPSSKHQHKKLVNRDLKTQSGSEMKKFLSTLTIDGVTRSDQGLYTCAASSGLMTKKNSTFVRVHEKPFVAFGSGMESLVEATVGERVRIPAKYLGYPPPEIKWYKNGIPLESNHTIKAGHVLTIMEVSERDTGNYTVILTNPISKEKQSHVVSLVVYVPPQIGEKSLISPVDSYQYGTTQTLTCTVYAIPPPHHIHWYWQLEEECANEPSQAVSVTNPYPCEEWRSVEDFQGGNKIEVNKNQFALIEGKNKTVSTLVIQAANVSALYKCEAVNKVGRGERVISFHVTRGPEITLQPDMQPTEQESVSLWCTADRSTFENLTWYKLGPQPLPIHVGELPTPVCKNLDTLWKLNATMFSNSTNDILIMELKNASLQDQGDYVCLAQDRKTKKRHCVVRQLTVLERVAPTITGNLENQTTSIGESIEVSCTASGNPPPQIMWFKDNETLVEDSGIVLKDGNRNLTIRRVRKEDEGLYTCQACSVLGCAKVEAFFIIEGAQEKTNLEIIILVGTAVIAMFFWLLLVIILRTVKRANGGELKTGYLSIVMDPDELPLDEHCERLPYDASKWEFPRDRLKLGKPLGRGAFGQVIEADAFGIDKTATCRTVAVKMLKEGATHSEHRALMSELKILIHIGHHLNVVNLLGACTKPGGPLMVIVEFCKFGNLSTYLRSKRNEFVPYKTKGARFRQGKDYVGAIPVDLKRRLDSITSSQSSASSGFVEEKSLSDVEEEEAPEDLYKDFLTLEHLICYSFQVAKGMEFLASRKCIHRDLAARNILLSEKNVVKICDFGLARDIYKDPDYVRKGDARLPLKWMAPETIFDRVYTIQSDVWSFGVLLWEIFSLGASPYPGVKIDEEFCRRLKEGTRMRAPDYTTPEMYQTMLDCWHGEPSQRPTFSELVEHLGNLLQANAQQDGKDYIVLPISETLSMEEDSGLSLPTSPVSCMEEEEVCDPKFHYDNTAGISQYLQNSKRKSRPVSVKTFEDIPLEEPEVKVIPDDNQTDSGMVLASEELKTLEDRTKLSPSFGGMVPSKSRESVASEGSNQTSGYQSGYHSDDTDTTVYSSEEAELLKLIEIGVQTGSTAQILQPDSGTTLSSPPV
Sequence of Hepatocyte growth factor receptor (Homo sapiens) (P08581 whole entry): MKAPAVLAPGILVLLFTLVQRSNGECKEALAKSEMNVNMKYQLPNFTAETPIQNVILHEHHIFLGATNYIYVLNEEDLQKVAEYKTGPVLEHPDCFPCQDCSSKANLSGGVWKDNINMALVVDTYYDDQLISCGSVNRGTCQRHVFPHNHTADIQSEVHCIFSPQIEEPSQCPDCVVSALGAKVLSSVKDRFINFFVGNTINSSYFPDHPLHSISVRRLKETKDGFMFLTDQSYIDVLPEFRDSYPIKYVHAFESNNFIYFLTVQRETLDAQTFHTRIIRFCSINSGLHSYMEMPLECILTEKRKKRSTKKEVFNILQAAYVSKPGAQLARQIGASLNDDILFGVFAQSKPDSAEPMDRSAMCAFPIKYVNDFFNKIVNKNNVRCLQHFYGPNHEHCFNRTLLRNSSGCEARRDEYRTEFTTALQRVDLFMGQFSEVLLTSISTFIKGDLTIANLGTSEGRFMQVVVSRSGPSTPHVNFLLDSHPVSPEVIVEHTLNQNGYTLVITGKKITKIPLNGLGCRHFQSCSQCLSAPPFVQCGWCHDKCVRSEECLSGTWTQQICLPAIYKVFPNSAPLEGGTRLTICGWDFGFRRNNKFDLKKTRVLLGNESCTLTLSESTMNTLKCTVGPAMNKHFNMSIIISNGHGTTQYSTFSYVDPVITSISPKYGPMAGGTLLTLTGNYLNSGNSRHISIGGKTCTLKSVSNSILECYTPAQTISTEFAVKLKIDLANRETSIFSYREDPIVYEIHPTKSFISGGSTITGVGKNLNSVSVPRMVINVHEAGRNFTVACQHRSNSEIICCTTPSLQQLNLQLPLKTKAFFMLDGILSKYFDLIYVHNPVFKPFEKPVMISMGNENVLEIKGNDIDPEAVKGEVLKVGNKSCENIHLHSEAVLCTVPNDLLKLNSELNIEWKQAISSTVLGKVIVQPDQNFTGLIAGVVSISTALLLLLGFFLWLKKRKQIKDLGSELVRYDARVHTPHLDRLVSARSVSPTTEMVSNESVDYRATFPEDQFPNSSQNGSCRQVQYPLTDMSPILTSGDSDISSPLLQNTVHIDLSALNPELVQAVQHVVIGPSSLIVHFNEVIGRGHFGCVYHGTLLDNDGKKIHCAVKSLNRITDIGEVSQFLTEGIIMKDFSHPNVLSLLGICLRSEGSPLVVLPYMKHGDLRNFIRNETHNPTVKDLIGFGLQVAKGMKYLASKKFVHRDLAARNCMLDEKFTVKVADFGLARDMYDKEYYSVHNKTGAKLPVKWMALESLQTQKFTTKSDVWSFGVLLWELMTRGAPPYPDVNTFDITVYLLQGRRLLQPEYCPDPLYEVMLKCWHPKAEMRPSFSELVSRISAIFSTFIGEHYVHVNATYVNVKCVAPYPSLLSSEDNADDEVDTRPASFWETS

Regarding `C=CC(=O)Nc1cccc(Oc2nc(Nc3cccc(C#N)c3)nc3ccsc23)c1`, the inhibition worked out at 23.5% in assay [1]; 104% in the assay filed under Homo sapiens [2]; 95.9% in the assay filed under Homo sapiens [3]; 1.1% in assay [4]; 6% in [5]; 9.3% in [7]. Besides, the inhibition in the assay filed under Homo sapiens [8] was determined as 31.5%. The pIC50 was 4.72 in the assay on MCF7; 5.19 in the assay with HeLa; 5.42 in the assay with A-431 [6]; 5.36 with A549; < 4.30 in the assay with L02; 6.16 in the assay on NCI-H1975 [11]. For the same molecule, the pIC50 was 7.19 in assay [12], 7.87 in assay [13] and < 6.00 in [14]. In addition, the inhibition at 10 µM in the assay on NCI-H1975 [9] came out at 79.5%. For the same molecule, the inhibition at 1 µM with NCI-H1975 [10] was determined as 44.3%. The values for the Selectivity ratio in the assay listed under Homo sapiens [15] and in the assay filed under Homo sapiens [16] were > 15 and > 73, respectively. The result in the assay on A-431 [17] and in the assay on A-431 [30] was Active. Also, in the assay with A-431 [18], the viability at 0.2 µM turned out to be 83.4%. Besides, the Activity in the assay on A-431 [19] turned out to be 3.29%; in the assay on A-431 [20], 12.66%; with A-431 [21] it was 0.63%; with A-431 [23], 4.87%; with A-431 [24] it was 16.41%; with A-431 [25] it was 1.33%. Besides, the Activity was found to be 3.54% with A-431 [27], 17.17% in the assay with A-431 [28] and 0.97% with A-431 [29]. For the same molecule, in the assay on A-431 [22], the viability at 4 µM turned out to be 77.4%. The viability at 8 µM with A-431 [26] was 78.3%.

Take `C=CC(=O)Nc1cccc(Oc2nc(Nc3ccc(N4CCN(C)CC4)cc3)nc3ccsc23)c1` [OLMUTINIB]: the inhibition in the assay filed under Homo sapiens [3] amounted to 98.1%. Also, the negative logarithm of the IC50 (pIC50) in the assay on MCF7 is 5.16; with HeLa it was 5.03; with A-431 [6] it was 5.28; with A549, 5.37; with L02 it was 4.59; in the assay on NCI-H1975 [11], 6.28. Besides, the figures for the negative logarithm of the IC50 (pIC50) in [12] and in [13] were 7.32 and 7.90, respectively. Also, the inhibition at 10 µM in the assay with NCI-H1975 [9] was 74.6%. Moreover, the inhibition at 1 µM in the assay on NCI-H1975 [10] was determined as 6.08%. In the assay on A-431 [31], the viability at 5 µM is 78.7%. The figures for the Activity in the assay with A-431 [32], with A-431 [33] and with A-431 [34] were 5.17%, 14.78% and 1.37%, respectively.

Turning to `C=CC(=O)Nc1cccc(Oc2nc(Nc3cccc(OC)c3)nc3ccsc23)c1`, the inhibition in [1] is 24%; in the assay filed under Homo sapiens [2], 104%; in the assay listed under Homo sapiens [3], 94.8%; in assay [4] it was -0.2%; in assay [5], 0.5%; in [7] it was 9.7%. The inhibition in the assay filed under Homo sapiens [8] turned out to be 31.6%. Besides, the pIC50 is 4.72 in the assay with MCF7; 4.79 in the assay with HeLa; 5.32 in the assay on A-431 [6]; 5.36 in the assay with A549; 4.52 in the assay with L02; 6.38 in the assay on NCI-H1975 [11]. The figures for the pIC50 in assay [12], in [13] and in assay [14] were 7.12, 7.82 and < 6.00, respectively. Besides, the inhibition at 10 µM in the assay on NCI-H1975 [9] came to 86.8%. Further, the inhibition at 1 µM with NCI-H1975 [10] is 50.6%. In addition, the values for the Selectivity ratio in the assay listed under Homo sapiens [15] and in the assay listed under Homo sapiens [16] were > 13 and > 65, respectively.

For the origin of these results see ChEMBL document CHEMBL4706512, “Design, synthesis and antitumor activity of novel thiophene-pyrimidine derivatives as EGFR inhibitors overcoming T790M and L858R/T790M mutations” (Eur J Med Chem, 2020).
